Values of other authors in US20080160594A1, “Methods of Light Activated Release of Ligands from Endosomes” (INVITROGEN CORPORATION, priority 2001, published 2008).

Settings: Vlassov et al., 1994

CCCCCCCC/C=C\CCCCCCCCOCC(C[N+](C)(C)C)OCCCCCCCC/C=C\CCCCCCCC.[Cl-] (stereo not shown) [DOTMA, N-(1-(2,3-dioleyloxy)propyl)-N,N,N-trimethylammonium chloride]
increase of the antisense effect of a phosphorothioate oligonucleotide: 1000 fold
